Patent US20240174634A1, “Aldehyde Dehydrogenase Inhibitors and Their Therapeutic Use” (priority 2020, published 2024)

What was measured:
ALDH1A1 = molecular target: T1, ALDH1A1 (Homo sapiens, UniProt P00352); assay: Selectivity biochemical assay, NAD(P)H-Glo Detection System
T1 construct: His-tag; made in house; host or cells: E. coli Rosetta (DE3)
T1 sequence (P00352 1-501): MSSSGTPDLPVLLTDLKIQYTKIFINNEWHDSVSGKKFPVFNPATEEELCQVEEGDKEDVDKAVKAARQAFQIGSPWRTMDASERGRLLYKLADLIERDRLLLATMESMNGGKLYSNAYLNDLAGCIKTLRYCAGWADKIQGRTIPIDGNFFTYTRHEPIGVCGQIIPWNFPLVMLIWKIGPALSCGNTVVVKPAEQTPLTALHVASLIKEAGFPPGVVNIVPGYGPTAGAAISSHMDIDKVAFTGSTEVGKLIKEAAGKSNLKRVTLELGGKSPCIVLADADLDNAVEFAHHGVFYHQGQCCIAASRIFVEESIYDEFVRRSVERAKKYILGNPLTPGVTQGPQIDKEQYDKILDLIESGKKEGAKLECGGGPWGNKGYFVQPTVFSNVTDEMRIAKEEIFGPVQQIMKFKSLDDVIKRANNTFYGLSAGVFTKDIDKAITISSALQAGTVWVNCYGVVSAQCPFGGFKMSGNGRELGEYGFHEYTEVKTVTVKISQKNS
Description: (§1) Cloning: Open reading frames corresponding to the protein coding sequences of full length human ALDH1A1 (Uniprot ID P00352), ALDH1A2 (094788) and ALDH1A3 (P47895) were polymerase chain reaction (PCR) amplified from human cDNA and inserted into the multi-cloning sites of the commercially available (Novagen) E. coli expression vectors pET47b (ALDH1A1, EcoRI restriction site; ALDH1A2, BamHI and EcoRI sites) or pET28a (ALDH1A3, NdeI and BamHI sites), using standard molecular genetic techniques. Recombinant DNA products were sequence verified prior to use in expression studies.
(§2) Expression: Expression constructs were transformed into the E. coli strain Rosetta (DE3) (Merck) and individual colonies used to inoculate 10 mL lysogen broth (LB) medium supplemented with kanamycin and chloramphenicol at 50 μg/mL and 34 μg/mL, respectively. Cultures were grown to saturation overnight at 37° C., prior to being used to sub-inoculate fresh 1 L LB medium cultures (plus antibiotics, as before). 1 L cultures were grown at 37° C., 200 rpm, throughout the day until the optical density at 600 nm (OD600) reached ˜0.8, at which point growth temperature was reduced to 18° C. and 1 mM isopropyl β-d-1-thiogalacto pyranoside (IPTG) added to induce protein expression.
(§3) Cultures were left overnight (at least 16 h) under these conditions and the following day harvested by centrifugation (4000 G, 10 minutes). Culture supernatant was discarded and cell pellets stored at −80° C. until further processing.
(§4) Purification: Cell pellets were thawed on ice, re-suspended in Ni Affinity Buffer A (20 mM HEPES pH 7.5, 300 mM NaCl, 20 mM imidazole, 1 mM tris(2-carboxyethyl)phosphine (TCEP)) with protease inhibitors (cOmplete Ultra protease inhibitor, Roche), and lysed by sonication. Lysates were clarified by centrifugation at 18,000 G, 4° C., for 40 minutes, and loaded directly onto a pre-equilibrated (Buffer A) 5 mL HisTrap Fast Flow column (GE Healthcare) by way of an AKTA Fast Protein Liquid Chromatography (FPLC) system. The column was sequentially treated with 6 column volumes (CV) 100% Buffer A, 8 CV of 90% Buffer A:10% Buffer B (20 mM 4-(2-hydroxyethyl)-1-piperazineethanesulfonic acid (HEPES) pH 7.5, 300 mM NaCl, 500 mM imidazole, 1 mM TCEP) and finally a linear gradient from 10-70% Buffer B over 8 CV to elute recombinant His-tagged protein. Relevant fractions (as measured by 280 nm absorbance) collected during elution were pooled and subjected to further purification by size exclusion chromatography (Superdex 200 26/600, GE Healthcare, running buffer 20 mM 2-(carbamoylmethylamino)ethanesulfonic acid (ACES) pH 7.5, 1 mM TCEP). Relevant fractions from this step were pooled, aliquoted, and stored at −80° C. until required for compound profiling assays.
(§5) Materials: ALDH2 was purchased from Abnova. Tris(hydroxymethyl)aminomethane (Tris) was purchased from MP Biomedicals. TCEP, ethylenediaminetetraacetic acid (EDTA), propionaldehyde, DMSO and Tween-20 were purchased from Sigma. Nicotinamide adenine dinucleotide (NAD) was obtained from Abcam. The NAD(P)H-Glo™ Detection System was purchased from Promega. White, non-binding surface, 384 well plates were supplied by Corning (#3574).
(§6) Method: Inhibition of ALDH1A3 was assessed using the NAD(P)H-Glo™ Detection System (Cat. No. G9062) from Promega. This assay detects the production of NADH from NAD by ALDH1A3 via the coupled enzymatic conversion of a proluciferin reductase substrate to generate a luminescent signal. Inhibition of ALDH1A3 by small molecule inhibitors will result in reduction or abrogation of luminescence signal increase above background. Inhibition of ALDH1A1, ALDH1A2 and ALDH2 (selectivity assays) were assessed using the same assay.
(§7) Compounds were dosed into Corning 384 well assay plates using an Echo acoustic dispenser to give 10 point curves in a 3-fold dilution series. Compounds were dispensed from a 20 mM DMSO stock and initially screened at a top concentration of 20 μM (ALDH1A3) or 250 μM (ALDH1A1, ALDH1A2 & ALDH2). […]

ALDH1A2 = molecular target: T2, ALDH1A2 (Homo sapiens, UniProt O94788); assay: as above
T2 construct: His-tag; made in house; host or cells: E. coli Rosetta (DE3)
T2 sequence (O94788 1-518): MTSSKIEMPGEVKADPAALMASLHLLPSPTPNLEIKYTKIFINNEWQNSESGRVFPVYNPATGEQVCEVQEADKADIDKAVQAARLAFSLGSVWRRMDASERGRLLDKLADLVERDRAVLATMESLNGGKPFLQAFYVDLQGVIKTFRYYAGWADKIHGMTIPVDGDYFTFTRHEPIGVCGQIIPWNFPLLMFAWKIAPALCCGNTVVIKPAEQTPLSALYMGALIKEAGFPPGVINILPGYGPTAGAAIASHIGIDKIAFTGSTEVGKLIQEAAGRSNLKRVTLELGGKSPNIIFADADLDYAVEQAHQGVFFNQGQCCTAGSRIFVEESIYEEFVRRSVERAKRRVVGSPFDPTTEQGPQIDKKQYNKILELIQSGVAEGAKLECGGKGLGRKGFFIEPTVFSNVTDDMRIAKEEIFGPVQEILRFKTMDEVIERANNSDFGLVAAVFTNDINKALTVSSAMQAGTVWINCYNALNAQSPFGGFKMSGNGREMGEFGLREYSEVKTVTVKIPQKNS
Description: as §1, §2, §3, §4, §5, §6, §7

## O=C1CCc2cc(NC(=O)c3c[nH]nc3-c3cccc(F)c3)ccc2N1 [ALDHI-1006, 3-(3-fluorophenyl)-N-(2-oxo-1,2,3,4-tetrahydroquinolin-6-yl)-1H-pyrazole-4-carboxamide]
ALDH1A1
  IC50: ≥ 100 µM

## O=C1CCc2cc(OCCN3CCCC3c3ccccn3)ccc2N1 (stereo not shown) [ALDHI-2006, 6-[2-[2-(2-pyridyl)pyrrolidin-1-yl]ethoxy]-3,4-dihydro-1H-quinolin-2-one]
ALDH1A1
  IC50: ≥ 100 µM
ALDH1A2
  IC50: 1 to 10 µM

## O=C1CCc2cc(OCCN3CCC3c3cccc(F)c3)ccc2N1 (stereo not shown) [ALDHI-2021, 6-[2-[2-(3-fluorophenyl)azetidin-1-yl]ethoxy]-3,4-dihydro-1H-quinolin-2-one]
ALDH1A1
  IC50: ≥ 100 µM
ALDH1A2
  IC50: 1 to 10 µM

## CN(CCOc1ccc2c(c1)CCC(=O)N2)C(=O)c1cccnc1 [ALDHI-3013, N-methyl-N-[2-[(2-oxo-3,4-dihydro-1H-quinolin-6-yl)oxy]ethyl]pyridine-3-carboxamide]
ALDH1A1
  IC50: ≥ 100 µM
ALDH1A2
  IC50: ≥ 100 µM

## O=C1CCc2cc(OCCN(CCO)Cc3cccc(F)c3)ccc2N1 [ALDHI-3002, 6-[2-[(3-fluorophenyl)methyl-(2-hydroxyethyl)amino]ethoxy]-3,4-dihydro-1H-quinolin-2-one]
ALDH1A1
  IC50: ≥ 100 µM
ALDH1A2
  IC50: 0.1 to 1 µM

## O=C1CCc2cc(NC(=O)c3scnc3-c3ccc(F)cc3)ccc2N1 [ALDHI-1017, 4-(4-fluorophenyl)-N-(2-oxo-1,2,3,4-tetrahydroquinolin-6-yl)thiazole-5-carboxamide]
ALDH1A1
  IC50: ≥ 100 µM
ALDH1A2
  IC50: 1 to 10 µM

## Cc1ccc(C2CCCN2CCOc2ccc3c(c2)CCC(=O)N3)cc1 (stereo not shown) [ALDHI-2010, 6-[2-[2-(p-tolyl)pyrrolidin-1-yl]ethoxy]-3,4-dihydro-1H-quinolin-2-one]
ALDH1A1
  IC50: ≥ 100 µM
ALDH1A2
  IC50: ≥ 100 µM

## Cc1cccc(C2CCCN2CCOc2ccc3c(c2)CCC(=O)N3)c1 (stereo not shown) [ALDHI-2011, 6-[2-[2-(m-tolyl)pyrrolidin-1-yl]ethoxy]-3,4-dihydro-1H-quinolin-2-one]
ALDH1A1
  IC50: ≥ 100 µM
ALDH1A2
  IC50: 10 to 100 µM

## O=C1CCc2cc(OCCN3CCC[C@@H]3c3cccc(F)c3)ccc2N1 [ALDHI-2007, 6-[2-[(2R)-2-(3-fluorophenyl)pyrrolidin-1-yl]ethoxy]-3,4-dihydro-1H-quinolin-2-one]
ALDH1A1
  IC50: ≥ 100 µM
ALDH1A2
  IC50: 0.1 to 1 µM

## O=C1CCc2cc(OCCN3CCCC3c3cccs3)ccc2N1 (stereo not shown) [ALDHI-2013, 6-[2-[2-(2-thienyl)pyrrolidin-1-yl]ethoxy]-3,4-dihydro-1H-quinolin-2-one]
ALDH1A1
  IC50: ≥ 100 µM
ALDH1A2
  IC50: 1 to 10 µM

## O=C1CCc2cc(OCCN3CCCC3c3ccc(F)cc3)ccc2N1 (stereo not shown) [ALDHI-2003, 6-[2-[2-(4-fluorophenyl)pyrrolidin-1-yl]ethoxy]-3,4-dihydro-1H-quinolin-2-one]
ALDH1A1
  IC50: ≥ 100 µM
ALDH1A2
  IC50: 1 to 10 µM

## O=C1CCc2cc(NC(=O)c3ocnc3-c3cccc(F)c3)ccc2N1 [ALDHI-1019, 4-(3-fluorophenyl)-N-(2-oxo-3,4-dihydro-1H-quinolin-6-yl)oxazole-5-carboxamide]
ALDH1A1
  IC50: ≥ 100 µM
ALDH1A2
  IC50: ≥ 100 µM

## O=C1CCc2cc(OCCN3CCCC3c3ccncc3)ccc2N1 (stereo not shown) [ALDHI-2004, 6-[2-[2-(4-pyridyl)pyrrolidin-1-yl]ethoxy]-3,4-dihydro-1H-quinolin-2-one]
ALDH1A1
  IC50: ≥ 100 µM
ALDH1A2
  IC50: 10 to 100 µM

## CCN(CC)CCN(CCOc1ccc2c(c1)CCC(=O)N2)Cc1ccccc1 [ALDHI-3004, 6-[2-[benzyl-[2-(diethylamino)ethyl]amino]ethoxy]-3,4-dihydro-1H-quinolin-2-one]
ALDH1A1
  IC50: ≥ 100 µM
ALDH1A2
  IC50: 1 to 10 µM

## O=C1CCc2cc(OCCN3CCCC3c3cccc(F)c3)ccc2N1 (stereo not shown) [ALDHI-2001, 6-[2-[2-(3-fluorophenyl)pyrrolidin-1-yl]ethoxy]-3,4-dihydro-1H-quinolin-2-one]
ALDH1A1
  IC50: ≥ 100 µM
ALDH1A2
  IC50: 0.1 to 1 µM

## O=C1CCc2cc(OCCn3nccc3-c3cccc(F)c3)ccc2N1 [ALDHI-2023, 6-[2-[5-(3-fluorophenyl)pyrazol-1-yl]ethoxy]-3,4-dihydro-1H-quinolin-2-one]
ALDH1A1
  IC50: ≥ 100 µM
ALDH1A2
  IC50: < 0.1 µM

## CC1CN(CCOc2ccc3c(c2)CCC(=O)N3)C(c2ccccc2)CO1 (mixture of isomers) [ALDHI-2042, 6-[2-(2-methyl-5-phenyl-morpholin-4-yl)ethoxy]-3,4-dihydro-1H-quinolin-2-one]
ALDH1A1
  IC50: 10 to 100 µM
ALDH1A2
  IC50: 0.1 to 1 µM

## O=C1COc2cc(OCCN3CCCC3c3cccc(F)c3)ccc2N1 (stereo not shown) [ALDHI-2009, 7-[2-[2-(3-fluorophenyl)pyrrolidin-1-yl]ethoxy]-4H-1,4-benzoxazin-3-one]
ALDH1A1
  IC50: ≥ 100 µM
ALDH1A2
  IC50: 1 to 10 µM

## O=C1CCc2cc(NC(=O)c3sccc3-c3cccc(F)c3)ccc2N1 [ALDHI-1022, 3-(3-fluorophenyl)-N-(2-oxo-3,4-dihydro-1H-quinolin-6-yl)thiophene-2-carboxamide]
ALDH1A1
  IC50: 10 to 100 µM
ALDH1A2
  IC50: 1 to 10 µM

## CCC1Oc2cc(OCCN3CCCC3c3cccc(F)c3)ccc2NC1=O (stereo not shown) [ALDHI-2045, 2-ethyl-7-[2-[2-(3-fluorophenyl)pyrrolidin-1-yl]ethoxy]-4H-1,4-benzoxazin-3-one]
ALDH1A1
  IC50: ≥ 100 µM
ALDH1A2
  IC50: 1 to 10 µM

## O=C1CCc2cc(NC(=O)c3ccccc3-c3cccc(F)c3)ccc2N1 [ALDHI-1007, 3′-fluoro-N-(2-oxo-1,2,3,4-tetrahydroquinolin-6-yl)-[1,1′-biphenyl]-2-carboxamide]
ALDH1A1
  IC50: ≥ 100 µM
ALDH1A2
  IC50: 1 to 10 µM

## O=C1CCc2cc(NC(=O)c3cncnc3-c3cccc(F)c3)ccc2N1 [ALDHI-1018, 4-(3-fluorophenyl)-N-(2-oxo-3,4-dihydro-1H-quinolin-6-yl)pyrimidine-5-carboxamide]
ALDH1A1
  IC50: ≥ 100 µM

## O=C1CCc2cc(NC(=O)c3scnc3-c3ccccc3Cl)ccc2N1 [ALDHI-1012, 4-(2-chlorophenyl)-N-(2-oxo-3,4-dihydro-1H-quinolin-6-yl)thiazole-5-carboxamide]
ALDH1A1
  IC50: 10 to 100 µM
